This note sets out measurements from publication PMC11125126, “Synthesis, Characterisation, and In Vitro Evaluation of Biocompatibility, Antibacterial and Antitumor Activity of Imidazolium Ionic Liquids” (Pharmaceutics, 2024).

In one series the test system is Escherichia coli. The experiment in a line: MIC/MBC by broth dilution, pure ILs. The series is classed as cell-based. The conditions noted are these: 24 h. From the text: (§1) Within the Di3A (Dipartimento di Agricoltura, Alimentazione e Ambiente, University of Catania, Italy) microbial collection, two Gram-negative strains (Escherichia coli and Pseudomonas fluorescens) and one Gram-positive strain (Listeria monocytogenes) were studied in order to define the potential efficacy of ionic liquids in relation to the different structure of the bacterial cell wall.
(§2) For the pure ILs, the minimal inhibitory concentration (MIC) and minimal bactericidal concentration (MBC) were determined in Nutrient Broth (NB, Oxoid, Basingstoke, UK) medium by broth dilution method, according to the Clinical and Laboratory Standards Institute (CLSI).
(§3) All the bacterial strains were individually grown for 24 h at 35 or 27 °C for P. fluorescens, with shaking. After the incubation period, the cells were collected by centrifugation and re-suspended in sterile NB to obtain a stock culture of 10^9 CFU/mL.
(§4) Tubes containing 5 mL of NB with decreasing concentrations of ILs (1000, 500, 250, 125, 50, 25, 12.5, 5 and 0 µg/mL) were inoculated with each bacterial stock culture at a final concentration of 10^6 CFU/mL.
(§5) Tubes were incubated at 35 or 27 °C in an orbital shaker and evaluated for the viable count of E. coli, P. fluorescens, and L. monocytogenes after 24 h by spread-plating 100 µL of each suspension on Nutrient Agar (NA, Oxoid, Basingstoke, UK) incubated for 24–48 h at 35 or 27 °C.
(§6) In this study, MIC and MBC are expressed in both µg/mL and µM to make the comparison with the literature data easy. Each experiment was performed in triplicate.
In general terms: Dilution methods test growth across graded concentrations, often in twofold steps.

A further series concerns HDF cells. Nature of the series: Direct cytotoxicity test of IL powders, Alamar blue assay. It counts as cell-based, human. Conditions: 24 h of incubation. Here is the method:
(§7) Cytotoxicity studies on IL powders were carried out using human dermal fibroblast (HDF) cells (Sigma-Aldrich) and a human breast cancer cell line (MCF7). In addition, ILs loaded in PVC polymer substrates were tested for their cytocompatibility and adhesion properties on the HDF. HDF cells were cultured in 75 cm^2 cell culture flask in Dulbecco’s Modified Eagle’s Medium (DMEM) supplemented with 20% Foetal Bovine Serum (FBS), 1% non-essential amino acid (NEAA), antibiotic solution (streptomycin 100 µg/mL and penicillin 100 U/mL, Sigma Aldrich) and 2 mM L-glutamine. MCF7 cells were grown in DMEM with 10% FBS and the same antibiotics as mentioned above. The cells were maintained in a culture at 37 °C, with 5% CO2 and 95% humidity to achieve a confluent layer. Control cells were cultured in a complete medium without any compounds in tissue culture plates. Before biological testing, the samples were sterilised using a UV light for 2 h.
(§8) A direct cytotoxicity test was used to assess the in vitro cytotoxicity of IL powders. IL powders with different alkyl chains were dissolved in DMEM media to obtain solutions at various concentrations (0.5–1–5 and 10 µg/mL) to determine the best formulation.
(§9) After 24 h of incubation of IL solutions (200 µL) with seeded cells under specific environmental conditions (T = 37 °C, HR = 95%, CO2 = 5%), cell viability was tested using the Alamar blue assay (AbD Serotec, Milan, Italy) following the manufacturer’s instructions.
(§10) In summary, each well received a 200 µL aliquot of Alamar Blue^TM diluted 1:10 in phenol red-free medium and was incubated for 4 h at 37 °C, 5% CO2. Following this, 100 µL of the solution was transferred to a 96-well plate for colorimetric analysis. Wells with no cells were included to account for any background interference from the redox indicator. Optical density was immediately measured using a spectrophotometer (Victor X3, Perkin Elmer, Waltham, MA, USA) at 560 and 595 nm wavelengths. The results were presented as a percentage of cell viability compared to that of the control (cells grown on tissue culture plates).
(§11) Here, the antitumor activity and cytotoxicity of the synthetised imidazolium-based ionic liquids have been determined for breast cancer cells (MCF-7) and healthy human fibroblast (HDF) cells. […] Table 5 reports the IC50 values in µg/mL and µM to make their comparison with the literature data easy.

The subject of the next series is MCF7 cancer cells. The description is as above. It counts as cell-based, human. The conditions noted are these: 24 h of incubation. Here is the method: as §7, §8, §9, §10, §11
A short description of series [1]: Thermogravimetric analysis (TGA), thermal stability. It counts as physicochemical. The conditions noted are these: neat ILs; single-step degradation; 10 °C/min, nitrogen. On the procedure: Thermal stability and kinetic parameters of the synthesised ILs were investigated using the TA instruments Q500 thermogravimetric analyser (Milan, Italy). A certain amount of sample (4–5 mg) was placed in a platinum pan and heated at 10 °C min^−1 from 40 to 600 °C under a flow of nitrogen (60 mL/min).
Thermogravimetric analyses were performed to evaluate the thermal stability of ILs and PVC/IL blends. Before testing, the samples were subjected to drying cycles in a vacuum stove for 24 h at 50–60 °C, according to the thermal features of ILs, mainly considering their melting points. The ILs C9mimBF4, C10mimBF4, C9mimDMSIP, and C10mimDMSIP, which are liquid at RT, were left to dry at 30 °C for 4–5 h. […] Considering this, the 40–600 °C degradation temperature range was adopted for the subsequent TGA analyses. […] Furthermore, platinum pans and nitrogen as purge gas were used, and the temperature at which 5% weight loss occurred was defined as Tonset, aiming to avoid the decomposition differences due to pan and gas types, as well as the uncertainty from the manual determination of the Tonset tangent point, respectively. Many features can influence the thermal stability of ILs, mainly the coordinating nature of the anion. Indeed, the highly coordinating halide anions (Cl, Br) display a thermal stability lower than that of poor coordinating anions (PF6). The type of cation core influences the thermal stability of ILs, with a decreasing temperature resistance in the following order: pyrrolidinium, imidazolium, pyridinium, and non-cyclic tetra-alkyl ammonium. The increasing alkyl chain length of the imidazolium cation and branching of the alkyl substituents induce a reduction in thermal stability. Furthermore, a decrease in thermal stability is determined by the presence of alkoxylated side chains in methylimidazolium, piperidinium, and pyrrolidinium cations.
As the industrial production of end products usually involves processing methodologies during which undesirable degradation processes could affect materials’ performance, the thermal stability of neat PVC and PVC/IL film blends was analysed. As detailed for TGA analyses of pure ILs, the stability of the PVC/IL blends was determined at heating runs of 10 °C/min from 40 to 600 °C under a nitrogen atmosphere using a platinum pan. These things considered, the temperature at 5% weight loss was considered as Tonset.

The subject of the next series is Listeria monocytogenes. The experiment in a line: MIC/MBC by broth dilution, pure ILs. The series is classed as cell-based. Conditions: 24 h.
Text: as §1, §2, §3, §4, §5, §6

For another series, the system named is Pseudomonas fluorescens. The experiment in a line: MIC/MBC by broth dilution, pure ILs. It counts as cell-based. Conditions: 24 h.
Text: as §1, §2
All the bacterial strains were individually grown for 24 h at 35 or 27 °C for P. fluorescens, with shaking. After the incubation period, the cells were collected by centrifugation and re-suspended in sterile NB to obtain a stock culture of 10^9 CFU/mL. […]
as §5, §6

Where [2] appears, read: NI = no inhibition at IL maximum concentration used (1000 µM), read-out: MIC.
Setting [3] is: NI = no inhibition at IL maximum concentration used (1000 µM), read-out: MBC.

Usually MIC stands for the least concentration at which growth counts as inhibited. As usually defined, the IC50 is the concentration at which inhibition is half-maximal. For orientation: MBC means the smallest concentration meeting the test's criterion for killing.

Structures are written as SMILES. Like-named read-outs stand apart in the source and are kept apart here.

Regarding `CCCCCCCCC[n+]1ccn(C)c1.COC(=O)c1cc(C(=O)OC)cc(S(=O)(=O)[O-])c1` [C9mimDMSIP], the figures for the MIC against Escherichia coli (10^6 CFU/mL) and in the series on Escherichia coli (setting [2]) were 482.59 µg/mL and 1000 µM, respectively. For the same compound, the IC50 in the series on HDF cells (n = 3) was 10.3 µM; with MCF7 cancer cells (n = 3, mean ± SD) it was more than 50 µM. For the same compound, in the series on HDF cells (n = 3, mean ± SD), the “IC50 HDF” value amounted to 4.96 ± 0.05 µg/mL. Moreover, in the series on MCF7 cancer cells (n = 3), the “IC50 MCF7” value was more than 24.13 µg/mL. Moreover, in series [1], the “Td, maximum degradation temperature” value came to 389.7 °C.
Regarding `CCCCCCCCCCCCCCCC[n+]1ccn(C)c1.COC(=O)c1cc(C(=O)OC)cc(S(=O)(=O)[O-])c1` [C16mimDMSIP], the MBC against Escherichia coli (10^6 CFU/mL) is reported as 72.60 µg/mL; with Escherichia coli (setting [3]), 125 µM; with Listeria monocytogenes (10^6 CFU/mL), 72.60 µg/mL; in the series with Listeria monocytogenes (setting [3]) it was 125 µM; in the series on Pseudomonas fluorescens (10^6 CFU/mL), 145.19 µg/mL; in the series with Pseudomonas fluorescens (setting [3]), 250 µM. In addition, the MIC is 72.60 µg/mL in the series with Escherichia coli (10^6 CFU/mL); 125 µM in the series with Escherichia coli (setting [2]); 29.04 µg/mL against Listeria monocytogenes (10^6 CFU/mL); 50 µM with Listeria monocytogenes (setting [2]); 145.19 µg/mL in the series on Pseudomonas fluorescens (10^6 CFU/mL); 250 µM in the series on Pseudomonas fluorescens (setting [2]). Besides, the IC50 with HDF cells (n = 3) is 9.57 µM; in the series with MCF7 cancer cells (n = 3, mean ± SD) it was 6.61 µM. Besides, the “IC50 HDF” value in the series on HDF cells (n = 3, mean ± SD) was 5.56 ± 0.04 µg/mL. For the same compound, the “IC50 MCF7” value in the series on MCF7 cancer cells (n = 3) is 3.84 µg/mL.
Consider `CCCCCCCCCCCCCCCCCC[n+]1ccn(C)c1.F[B-](F)(F)F` [C18mimBF4], for which the MBC in the series on Escherichia coli (10^6 CFU/mL, read-out: MBC) was found to be 106 µg/mL; with Escherichia coli (setting [3]) it was 250 µM; in the series on Listeria monocytogenes (10^6 CFU/mL, read-out: MBC) it was 422 µg/mL; in the series on Listeria monocytogenes (setting [3]), 1000 µM. Also, the MIC is 52.8 µg/mL with Escherichia coli (10^6 CFU/mL, read-out: MIC); 125 µM in the series on Escherichia coli (setting [2]); 211 µg/mL with Listeria monocytogenes (10^6 CFU/mL, read-out: MIC); 500 µM in the series on Listeria monocytogenes (setting [2]); more than 1000 µM in the series on Pseudomonas fluorescens (setting [2]). Moreover, the IC50 with HDF cells (Homo sapiens, n = 3) was 10.8 µM; in the series on HDF cells (Homo sapiens, n = 3, mean ± SD), 4.57 ± 0.06 µg/mL; with MCF7 cancer cells (Homo sapiens, n = 3), 1.95 µg/mL; with MCF7 cancer cells (Homo sapiens, n = 3, mean ± SD) it was 4.61 µM.
On to `CCCCCCCCCCCCCCCCCCCC[n+]1ccn(C)c1.F[B-](F)(F)F` [C20mimBF4], for which the MIC was more than 450 µg/mL in the series on Escherichia coli (10^6 CFU/mL, read-out: MIC); more than 1000 µM with Escherichia coli (setting [2]); more than 450 µg/mL in the series with Listeria monocytogenes (10^6 CFU/mL, read-out: MIC); more than 1000 µM in the series on Listeria monocytogenes (setting [2]); more than 1000 µM in the series on Pseudomonas fluorescens (setting [2]). Further, the IC50 was 5.99 µM in the series on HDF cells (Homo sapiens, n = 3); 2.7 ± 0.19 µg/mL with HDF cells (Homo sapiens, n = 3, mean ± SD); 3.47 µg/mL in the series with MCF7 cancer cells (Homo sapiens, n = 3); 7.71 µM in the series on MCF7 cancer cells (Homo sapiens, n = 3, mean ± SD). Moreover, the “Td, maximum degradation temperature” value in series [1] was 427.9 °C.
Regarding `CCCCCCCCCCCCCCCCCCCCn1cc[n+](C)c1.COC(=O)c1cc(C(=O)OC)cc(S(=O)(=O)[O-])c1` [C20mimDMSIP, 1-eicosyl-3-methylimidazolium 1,3-dimethyl-5-sulfoisophthalate], the MIC against Escherichia coli (10^6 CFU/mL) and against Listeria monocytogenes (10^6 CFU/mL) was more than 636.88 µg/mL throughout. The IC50 in the series on HDF cells (n = 3) is 8.01 µM; with MCF7 cancer cells (n = 3, mean ± SD), 7.39 µM. The “IC50 HDF” value in the series with HDF cells (n = 3, mean ± SD) came out at 5.10 ± 0.02 µg/mL. In the series with MCF7 cancer cells (n = 3), the “IC50 MCF7” value was found to be 4.71 µg/mL. The “Td, maximum degradation temperature” value in series [1] amounted to 412.2 °C.
